Measured values reported in US5084442A, “Cyclic growth hormone releasing factor analogs and method for the manufacture thereof” (Hoffmann-La Roche Inc., priority 1988, dated 1992).

Test system: dispersed rat anterior pituitary cells (release of rat growth hormone)
Assay: In Vitro (Cell Dispersion) Assay of GRF: growth hormone release measured by RIA
Format: cell-based, rat (Sprague-Dawley)
Conditions: growth hormone release from cultured rat pituitary cells, 4 hours of incubation, peptide 0.8 to 200 fmol per ml; compared with natural GRF(1-44)-NH2 (= 1.0)
Method: In Vitro (Cell Dispersion) Assay of GRF
Pituitaries from 30-40 male Sprague-Dawley rats (175 g) were removed aseptically after decapitation. The anterior lobes were collected, washed 3 times in sterile Hepes buffer (0.025 M) (pH 7.35) and dispersed at 37° in 20-30 ml Hepes buffer (pH 7.35) containing collagenase (4 mg per ml) and Dispase (Protease grade II, 2 mg per ml). After gentle 100-110 min vortexing and trituration by Pasteur pipette, the dispersed cells were separated by centrifugation (150×g, 4 min) and re-suspended in Hepes buffer containing neuraminidase ([…]), and 200 µg/ml ethylenediaminetetraacetic acid (EDTA) disodium salt, pH 7.35, for 10 min.
The cells were washed twice with plating medium and plated on multiwell-plates (1.5×10^5 cells per ml) using the following defined medium: F-12/DMEM/BGJ (6:3:1) (Gibco: 430-1700/430-1600/320-2591) with 2 g BSA/1., 2.38 g Hepes/1.50 mg PSN antibiotic mixture (Gibco Laboratories), 10 mg/l transferring (Sigma T2252) with 1.83 g NaHCO3 /l (Baker 3506). The medium in each well was supplemented either with a sample of the novel GRF peptide or natural GRF(1-44)-NH2 at concentrations ranging from 0.8 to 200 fmol per ml of medium. Control wells contained no supplement. Plating was done with this medium added with 2% fetal calf serum to ensure rapid fixation of the cells.
On the fourth day, the cells were washed twice with the defined medium without fetal calf serum. Finally, 900 μl of defined medium was added to each well plus 100 μl of the same medium containing each individual treatment, in triplicate. After 4 hours of incubation the medium was collected and diluted as required to conduct radioimmunoassay (RIAs) for rat growth hormone.
RIAs for rat growth hormone were conducted using Sinha's anti-murine GH immune serum and procedures according to the National Pituitary Agency using protein A to precipitate antibody antigen complex.

Molecule	RELATIVE POTENCY
CC[C@H](C)[C@H](NC(=O)[C@H](C)NC(=O)[C@H](CC(=O)O)NC(=O)[C@H](C)NC(=O)[C@@H](N)Cc1ccc(O)cc1)C(=O)N[C@@H](Cc1ccccc1)C(=O)N[C@H](C(=O)N[C@@H](CC(N)=O)C(=O)N[C@@H](CO)C(=O)N[C@@H](Cc1ccc(O)cc1)C(=O)N[C@@H](CCCNC(=N)N)C(=O)N[C@@H](CCCCN)C(=O)N[C@H](C(=O)N[C@@H](CC(C)C)C(=O)NCC(=O)N[C@@H](CCC(N)=O)C(=O)N[C@@H](CC(C)C)C(=O)N[C@@H](CO)C(=O)N[C@@H](C)C(=O)N[C@@H](CCCNC(=N)N)C(=O)N[C@@H](CCCCN)C(=O)N[C@@H](CC(C)C)C(=O)N[C@@H](CC(C)C)C(=O)N[C@@H](CCC(N)=O)C(=O)N[C@@H](CC(=O)O)C(=O)N[C@H](C(=O)N[C@@H](CCSC)C(=O)N[C@@H](CO)C(=O)N[C@@H](CCCNC(=N)N)C(=O)N[C@@H](CCC(N)=O)C(=O)N[C@@H](CCC(N)=O)C(=O)NCC(=O)N[C@@H](CCC(=O)O)C(=O)N[C@@H](CO)C(=O)N[C@@H](CC(N)=O)C(=O)N[C@@H](CCC(N)=O)C(=O)N[C@@H](CCC(=O)O)C(=O)N[C@@H](CCCNC(=N)N)C(=O)NCC(=O)N[C@@H](C)C(=O)N[C@@H](CCCNC(=N)N)C(=O)N[C@@H](C)C(=O)N[C@@H](CCCNC(=N)N)C(=O)N[C@@H](CC(C)C)C(N)=O)[C@@H](C)CC)C(C)C)[C@@H](C)O [GRF(1-44)--NH2, GRF(1-44)-NH2, reference compound]	1.0
Cyclo^8,12;21,25 [Asp^8, Ala^15 ]-GRF(1-29)-NH2	2.24
Cyclo^8,12;21,25 [N-MethylTyr^1,D-Ala^2, Asp^8, Ala^15 ]-GRF(1-29)-NH2	0.61
Cyclo^21,21 [N-MethylTyr^1, D-Ala^2, Ala^15 ]-GRF(1-29)-NH2	1.92
Cyclo^21,25 [Ala^15 ]-GRF(1-29)-NH2 [Cyclo^21,25 --[Ala^15]--GRF(1-29)--NH2]	1.27
Cyclo^21,25 [D-Ala^2, Ala^15 ]-GRF(1-29)-NH2	1.99
Cyclo^21,25 [desNH2 Tyr^1,Ala^15 ]-GRF(1-29)-NH2	1.47
